Experimental data: US11857544B2, “Composition or method including (t)ew-7197 for treating or preventing corneal endothelial diseases” (THE DOSHISHA, priority 2017, dated 2024)

Key:
[1] = test system: immortalized human corneal endothelial cells from a Fuchs' endothelial corneal dystrophy patient (iFECD); experiment: Suppression of TGF-β-induced corneal endothelial cell disorder, observed under a phase contrast microscope; assay type: cell-based; details: for effect of suppressing corneal endothelial cell disorder: Example 1, iFECD, 24 h pretreatment then 10 ng/ml TGF-β 24 h; for effect of suppressing corneal endothelial cell disorders: Example 2, iFECD + TGF-β
Protocol: The medium was removed from a culture dish culturing immortalized human corneal endothelial cells from a Fuchs' endothelial corneal dystrophy patient (iFECD), and 1×PBS(-) preheated to 37° C. was added and washed. This was repeated twice. 1×PBS(-) was added again and the medium was incubated for 5 minutes at 37° C. (5% CO2). After removing the PBS(-), 0.05% Trypsin-EDTA (Nacalai Tesque, 32778-34) was added and incubated for 5 minutes at 37° C. (5% CO2). The medium was then suspended and centrifuged for 3 minutes at 1500 rpm to retrieve cells. DMEM (Nacalai Tesque, 08456-36)+10% FBS (Biowest, S1820-500)+1% P/S (Nacalai Tesque, 26252-94) was used as the medium. The immortalized human corneal endothelial cells from a Fuchs' endothelial corneal dystrophy patient (iFECD) were seeded on a 12-well plate at a ratio of 8.0×10^4 cells per well and cultured for 24 hours at 37° C. (5% CO2). DMEM+10% FBS+1% P/S was used as the medium. After 24 hours, the medium was exchanged and cultured again for 24 hours. DMEM+2% FBS+1% P/S was used as the medium. After 24 hours, the medium was removed. 10 ng/ml of Transforming Growth Factor-132 Human recombinant (WAKO, 200-19911) was added, and the medium was cultured for 24 hours. DMEM+2% FBS+1% P/S was used as the medium. After 24 hours, the cell morphology and apoptosis were observed under a phase contrast microscope. After […] were seeded on a 12-well plate and cultured for 24 hours, the medium was removed. SB431542 (WAKO, 192-16541) and EW-7197 (Selleck Chemicals, 57530) were added so that the final concentration would each be 0.1, 0.3, 1, 3, or 10 μM, and the medium was cultured for 24 hours. DMEM+2% FBS+1% P/S was used as the medium. After 24 hours, the medium was removed. 10 ng/ml of Transforming Growth Factor-132 Human recombinant (WAKO, 200-19911) as well as SB431542 and EW-7197 were added so that the final concentration would each be 0.1, 0.3, 1, 3, or 10 μM, and the medium was cultured for 24 hours. DMEM+2% FBS+1% P/S was used as the medium. After 24 hours, the cell morphology and apoptosis were observed under a phase contrast microscope. After […] were seeded on a 12-well plate at a ratio of 7.0×10^4 cells and cultured for 24 hours, the medium was removed. EW-7197 (Selleck Chemicals, 57530) was added so that the final concentration would be 0.001, 0.003, 0.01, 0.03, 0.1, 0.3, 1, 3, 10, or 30 μM, and the medium was cultured for 24 hours. DMEM+2% FBS+1% P/S was used as the medium. After 24 hours, the medium was removed. 10 ng/ml of Transforming Growth Factor-132 Human recombinant (WAKO, 200-19911) and EW-7197 were added so that the final concentration would be 0.001, 0.003, 0.01, 0.03, 0.1, 0.3, 1, 3, 10, or 30 μM, and the medium was cultured for 24 hours. DMEM+2% FBS+1% P/S was used as the medium. After 24 hours, the cell morphology and apoptosis were observed under a phase contrast microscope.

PARP = experiment: Western blot for PARP in TGF-β-stimulated iFECD; assay type: cell-based, human; details: 0.1, 1, 10 μM
Protocol: […] were seeded on a 12-well plate at a ratio of 8×10^4 cells per well, and cultured at 37° C. (5% CO2) for 24 hours. DMEM+10% FBS+1% P/S was used as the medium. After 24 hours, the medium was removed. EW-7197 (Selleck Chemicals, 57530) was added so that the final concentration would be 0.1, 1, or 10 μM, and SB431542 (WAKO, 192-16541) was added so that the final concentration would be 10 μM, and the medium was cultured for 24 hours. DMEM+2% FBS+1% P/S was used as the medium. After 24 hours, the medium was removed and cultured […] so that the final concentration of 10 ng/ml of Transforming Growth Factor-132 Human recombinant (WAKO, 200-19911) and […] would be 0.1, 1, and 10 μM, and that of SB431542 would be 10 μM. DMEM+2% FBS+1% P/S was used as the medium. After 24 hours, the cell morphology and apoptosis were observed under a phase contrast microscope. To retrieve floating and dead cells, the medium was retrieved on ice, cells were washed twice with 1×PBS(-) and the solution thereof was also retrieved. The solution was centrifuged for 5 min at 4° C. and 800 g and the supernatant was discarded to obtain a precipitate. […] The detected band intensities were analyzed with Lumino Image Analyzer LAS-4000 mini (Fuji Film) and ImageQuantTM software (GE Healthcare).

For `Cc1cccc(-c2[nH]c(CNc3ccccc3F)nc2-c2ccc3ncnn3c2)n1` [EW-7197, N-((4-([1,2,4]triazolo[1,5-a]pyridin-6-yl)-5-(6-methylpyridin-2-yl)-1H-imidazol-2-yl)methyl)-2-fluoroaniline], the “effect of suppressing corneal endothelial cell disorder” value ([1]; compound at 3 μM and 10 μM) was “confirmed”, the “effect of suppressing corneal endothelial cell disorder” value ([1]; compound at 0.1, 0.3, and 1 μM) was “effectively suppressed” and the “effect of suppressing corneal endothelial cell disorders” value ([1]; compound at 3 μM and 10 μM) was “effectively suppressed”. For the same compound, the “effect of suppressing corneal endothelial cell disorders” value ([1]; compound at 0.03, 0.1, 0.3, and 1 μM) was “particularly excellent effect of suppressing corneal endothelial cell disorders”, the “effect of suppressing corneal endothelial disorders” value ([1]; summary statement, at a low concentration of 0.03 μM) was “very potent effect of suppressing corneal endothelial disorders” and the “PARP (about 89 kDa)” value (PARP) was “suppressed to the same degree as the control group without stimulation with TGF-β or 10 μM of SB431542”.
